Test results from the supplement of paper PMC10307832.

Legend:
Assay in all cases: relative viability (nuclei count vs DMSO), 5 days (fraction); higher = more cells survive
NCI-H1437 = system: NCI-H1437
Summary of the method: (§1)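 The day after seeding in 1536-well plates, lung cancer cell lines were treated by pin tool with a single drug, or with a fixed anchor-drug dose together with five library-drug doses (not always all listed) in √10 steps. After 5 days, a combined fix-and-stain solution (final 0.05% Triton X-100, 1% formaldehyde, 1 ug/ml Hoechst) was added. Nuclei counted on 4× images gave relative viability as treated counts over vehicle counts, reported as the median of duplicate plates.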

NCI-H2087 = system: NCI-H2087
Summary of the method: as §1

EKVX = system: EKVX
Summary of the method: as §1

NCI-H1793 = system: NCI-H1793
Summary of the method: as §1

SK-MES-1 = system: SK-MES-1
Summary of the method: as §1

COR-L 105 = system: COR-L 105
Summary of the method: as §1

H3255 = system: H3255
Summary of the method: as §1

NCI-H2085 = system: NCI-H2085
Summary of the method: as §1

NCI-H1651 = system: NCI-H1651
Summary of the method: as §1

SK-LU-1 = system: SK-LU-1
Summary of the method: as §1

NCI-H1395 = system: NCI-H1395
Summary of the method: as §1

NCI-H1755 = system: NCI-H1755
Summary of the method: as §1

EMC-BAC-2 = system: EMC-BAC-2
Summary of the method: as §1

LK-2 = system: LK-2
Summary of the method: as §1

NCI-H2228 = system: NCI-H2228
Summary of the method: as §1

NCI-H1944 = system: NCI-H1944
Summary of the method: as §1

NCI-H2347 = system: NCI-H2347
Summary of the method: as §1

NCI-H661 = system: NCI-H661
Summary of the method: as §1

LXF-289 = system: LXF-289
Summary of the method: as §1

NCI-H1915 = system: NCI-H1915
Summary of the method: as §1

CAL-12T = system: CAL-12T
Summary of the method: as §1

LC-2-ad = system: LC-2-ad
Summary of the method: as §1

PC-3 [JPC-3] = system: PC-3 [JPC-3]
Summary of the method: as §1

SMILES: O=c1[nH]c2ccccc2n1C1CCN(CCCC(c2ccc(F)cc2)c2ccc(F)cc2)CC1 [Pimozide] + O=C(CCCCCCC(=O)Nc1ccccc1)NO [Vorinostat] (partner 1 µM)
- relative viability (NCI-H1437; first compound 0.08 µM): 0.786
- relative viability (NCI-H1437; first compound 0.253 µM): 0.763
- relative viability (NCI-H1437; first compound 0.8 µM): 0.767
- relative viability (NCI-H1437; first compound 2.53 µM): 0.67
- relative viability (NCI-H1437; first compound 8 µM): 0.405
- relative viability (NCI-H2087; first compound 0.08 µM): 0.802
- relative viability (NCI-H2087; first compound 0.253 µM): 0.597
- relative viability (NCI-H2087; first compound 2.53 µM): 0.615
- relative viability (NCI-H2087; first compound 8 µM): 0.774
- relative viability (EKVX; first compound 0.253 µM): 0.712
- relative viability (EKVX; first compound 0.8 µM): 0.601
- relative viability (EKVX; first compound 2.53 µM): 0.812
- relative viability (EKVX; first compound 8 µM): 0.641
- relative viability (NCI-H1793; first compound 0.08 µM): 0.642
- relative viability (NCI-H1793; first compound 0.253 µM): 0.761
- relative viability (NCI-H1793; first compound 0.8 µM): 0.693
- relative viability (NCI-H1793; first compound 2.53 µM): 0.761
- relative viability (NCI-H1793; first compound 8 µM): 0.624
- relative viability (SK-MES-1; first compound 0.08 µM): 1.13
- relative viability (SK-MES-1; first compound 0.253 µM): 1.02
- relative viability (SK-MES-1; first compound 0.8 µM): 0.991
- relative viability (SK-MES-1; first compound 2.53 µM): 1.06
- relative viability (SK-MES-1; first compound 8 µM): 0.996
- relative viability (COR-L 105; first compound 0.08 µM): 0.702
- relative viability (COR-L 105; first compound 0.253 µM): 0.767
- relative viability (COR-L 105; first compound 0.8 µM): 0.821
- relative viability (COR-L 105; first compound 2.53 µM): 0.833
- relative viability (COR-L 105; first compound 8 µM): 0.751
- relative viability (H3255; first compound 0.253 µM): 0.699
- relative viability (H3255; first compound 0.8 µM): 0.714
- relative viability (H3255; first compound 2.53 µM): 0.843
- relative viability (H3255; first compound 8 µM): 0.808
- relative viability (NCI-H2085; first compound 0.08 µM): 0.77
- relative viability (NCI-H2085; first compound 0.253 µM): 0.861
- relative viability (NCI-H2085; first compound 0.8 µM): 0.723
- relative viability (NCI-H2085; first compound 2.53 µM): 0.802
- relative viability (NCI-H2085; first compound 8 µM): 0.741
- relative viability (NCI-H1651; first compound 0.08 µM): 0.565
- relative viability (NCI-H1651; first compound 0.253 µM): 0.507
- relative viability (NCI-H1651; first compound 0.8 µM): 0.599
- relative viability (NCI-H1651; first compound 2.53 µM): 0.578
- relative viability (NCI-H1651; first compound 8 µM): 0.593
- relative viability (SK-LU-1; first compound 0.08 µM): 0.785
- relative viability (SK-LU-1; first compound 0.253 µM): 0.72
- relative viability (SK-LU-1; first compound 0.8 µM): 0.501
- relative viability (SK-LU-1; first compound 2.53 µM): 0.724
- relative viability (SK-LU-1; first compound 8 µM): 0.617
- relative viability (NCI-H1395; first compound 0.08 µM): 0.696
- relative viability (NCI-H1395; first compound 0.253 µM): 0.607
- relative viability (NCI-H1395; first compound 0.8 µM): 0.629
- relative viability (NCI-H1395; first compound 2.53 µM): 0.711
- relative viability (NCI-H1395; first compound 8 µM): 0.628
- relative viability (NCI-H1755; first compound 0.08 µM): 0.886
- relative viability (NCI-H1755; first compound 0.253 µM): 0.668
- relative viability (NCI-H1755; first compound 0.8 µM): 0.721
- relative viability (NCI-H1755; first compound 2.53 µM): 0.738
- relative viability (NCI-H1755; first compound 8 µM): 0.682
- relative viability (EMC-BAC-2; first compound 0.08 µM): 0.433
- relative viability (EMC-BAC-2; first compound 0.253 µM): 0.45
- relative viability (EMC-BAC-2; first compound 0.8 µM): 0.384
- relative viability (EMC-BAC-2; first compound 2.53 µM): 0.451
- relative viability (EMC-BAC-2; first compound 8 µM): 0.456
- relative viability (LK-2; first compound 0.08 µM): 0.2
- relative viability (LK-2; first compound 0.253 µM): 0.342
- relative viability (LK-2; first compound 0.8 µM): 0.254
- relative viability (LK-2; first compound 2.53 µM): 0.267
- relative viability (LK-2; first compound 8 µM): 0.395
- relative viability (NCI-H2228; first compound 0.08 µM): 0.623
- relative viability (NCI-H2228; first compound 0.253 µM): 0.668
- relative viability (NCI-H2228; first compound 0.8 µM): 0.668
- relative viability (NCI-H2228; first compound 2.53 µM): 0.677
- relative viability (NCI-H2228; first compound 8 µM): 0.318
- relative viability (NCI-H1944; first compound 0.08 µM): 0.563
- relative viability (NCI-H1944; first compound 2.53 µM): 0.636
- relative viability (NCI-H1944; first compound 8 µM): 0.47
- relative viability (NCI-H2347; first compound 0.08 µM): 0.685
- relative viability (NCI-H2347; first compound 0.253 µM): 0.594
- relative viability (NCI-H2347; first compound 0.8 µM): 0.537
- relative viability (NCI-H2347; first compound 2.53 µM): 0.537
- relative viability (NCI-H2347; first compound 8 µM): 0.492
- relative viability (NCI-H661; first compound 0.08 µM): 0.667
- relative viability (NCI-H661; first compound 0.253 µM): 0.741
- relative viability (NCI-H661; first compound 0.8 µM): 0.723
- relative viability (NCI-H661; first compound 2.53 µM): 0.699
- relative viability (NCI-H661; first compound 8 µM): 0.64
- relative viability (LXF-289; first compound 0.08 µM): 0.796
- relative viability (LXF-289; first compound 0.253 µM): 0.748
- relative viability (LXF-289; first compound 0.8 µM): 0.718
- relative viability (LXF-289; first compound 2.53 µM): 0.88
- relative viability (LXF-289; first compound 8 µM): 0.755
- relative viability (NCI-H1915; first compound 0.08 µM): 0.525
- relative viability (NCI-H1915; first compound 0.253 µM): 0.48
- relative viability (NCI-H1915; first compound 2.53 µM): 0.432
- relative viability (NCI-H1915; first compound 8 µM): 0.487
- relative viability (CAL-12T; first compound 0.08 µM): 0.732
- relative viability (CAL-12T; first compound 0.253 µM): 0.896
- relative viability (CAL-12T; first compound 0.8 µM): 0.7
- relative viability (CAL-12T; first compound 2.53 µM): 0.665
- relative viability (CAL-12T; first compound 8 µM): 0.664
- relative viability (LC-2-ad; first compound 0.08 µM): 0.731
- relative viability (LC-2-ad; first compound 0.253 µM): 0.661
- relative viability (LC-2-ad; first compound 0.8 µM): 0.499
- relative viability (LC-2-ad; first compound 2.53 µM): 0.653
- relative viability (LC-2-ad; first compound 8 µM): 0.655
- relative viability (PC-3 [JPC-3]; first compound 0.253 µM): 0.763
- relative viability (PC-3 [JPC-3]; first compound 0.8 µM): 0.716
- relative viability (PC-3 [JPC-3]; first compound 2.53 µM): 0.882
- relative viability (PC-3 [JPC-3]; first compound 8 µM): 0.726
